We go through twelve compounds from patent publication US12172995B2, “Substituted indole and indazole compounds” (BRISTOL-MYERS SQUIBB COMPANY, priority 2018, dated 2024).

By IC50 is commonly meant the concentration needed to halve the response being measured. Higher therefore signals weaker potency in that assay.

Holding throughout (type): cell-based
One assay deals with T1, human TLR8 (Homo sapiens, UniProt Q9NR97).
T1 construct: host or cells: HEK-Blue cells
T1 sequence (Q9NR97 27-1041): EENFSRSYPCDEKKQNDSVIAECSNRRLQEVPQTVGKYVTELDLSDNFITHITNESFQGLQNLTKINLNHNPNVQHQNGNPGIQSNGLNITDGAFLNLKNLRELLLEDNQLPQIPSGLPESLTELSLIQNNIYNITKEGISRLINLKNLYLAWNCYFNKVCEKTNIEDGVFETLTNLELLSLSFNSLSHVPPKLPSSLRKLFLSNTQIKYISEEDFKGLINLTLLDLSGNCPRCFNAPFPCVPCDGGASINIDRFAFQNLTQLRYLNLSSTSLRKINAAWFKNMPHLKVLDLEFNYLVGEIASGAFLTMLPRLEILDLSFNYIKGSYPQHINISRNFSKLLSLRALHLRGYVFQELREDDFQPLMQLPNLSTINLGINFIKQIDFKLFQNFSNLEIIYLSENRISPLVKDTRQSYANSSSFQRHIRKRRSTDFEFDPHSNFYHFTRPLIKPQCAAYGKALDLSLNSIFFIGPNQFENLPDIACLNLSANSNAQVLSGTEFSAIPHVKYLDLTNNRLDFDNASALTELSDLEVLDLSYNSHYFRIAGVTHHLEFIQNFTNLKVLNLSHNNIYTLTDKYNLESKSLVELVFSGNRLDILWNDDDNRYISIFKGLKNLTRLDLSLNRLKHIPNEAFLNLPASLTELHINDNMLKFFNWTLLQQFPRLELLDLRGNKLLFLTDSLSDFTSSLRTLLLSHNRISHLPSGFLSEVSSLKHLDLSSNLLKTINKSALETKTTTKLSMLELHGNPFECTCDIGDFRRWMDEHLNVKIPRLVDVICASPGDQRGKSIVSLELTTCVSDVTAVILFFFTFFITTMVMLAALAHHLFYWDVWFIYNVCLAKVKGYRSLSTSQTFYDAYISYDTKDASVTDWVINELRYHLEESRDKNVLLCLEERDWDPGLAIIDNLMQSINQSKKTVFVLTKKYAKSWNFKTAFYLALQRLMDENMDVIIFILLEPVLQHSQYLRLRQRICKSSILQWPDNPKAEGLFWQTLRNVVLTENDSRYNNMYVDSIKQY
In words: TLR8 inhibition reporter assay (HEK-Blue SEAP). The settings on record: HEK-Blue cells overexpressing human TLR8, stimulated with R848 15.9 μM, 22 hour incubation. In outline:
(§1)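 HEK-Blue cells overexpressing the receptor, with an NF-κB/AP-1-driven SEAP reporter, were pre-treated with compound (0.05 nM to 50 μM) for 30 min at room temperature. Stimulation used gardiquimod 7.5 μM (TLR7), R848 15.9 μM (TLR8) or ODN2006 5 nM (TLR9), followed by 22 h at 37 °C.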
For orientation: Reporter assays use an easily measured gene product as a stand-in for the process of interest.

The next assay has as its target T2, human TLR9 (Homo sapiens, UniProt Q9NR96).
T2 construct: host or cells: HEK-Blue cells
T2 sequence (Q9NR96 26-1032): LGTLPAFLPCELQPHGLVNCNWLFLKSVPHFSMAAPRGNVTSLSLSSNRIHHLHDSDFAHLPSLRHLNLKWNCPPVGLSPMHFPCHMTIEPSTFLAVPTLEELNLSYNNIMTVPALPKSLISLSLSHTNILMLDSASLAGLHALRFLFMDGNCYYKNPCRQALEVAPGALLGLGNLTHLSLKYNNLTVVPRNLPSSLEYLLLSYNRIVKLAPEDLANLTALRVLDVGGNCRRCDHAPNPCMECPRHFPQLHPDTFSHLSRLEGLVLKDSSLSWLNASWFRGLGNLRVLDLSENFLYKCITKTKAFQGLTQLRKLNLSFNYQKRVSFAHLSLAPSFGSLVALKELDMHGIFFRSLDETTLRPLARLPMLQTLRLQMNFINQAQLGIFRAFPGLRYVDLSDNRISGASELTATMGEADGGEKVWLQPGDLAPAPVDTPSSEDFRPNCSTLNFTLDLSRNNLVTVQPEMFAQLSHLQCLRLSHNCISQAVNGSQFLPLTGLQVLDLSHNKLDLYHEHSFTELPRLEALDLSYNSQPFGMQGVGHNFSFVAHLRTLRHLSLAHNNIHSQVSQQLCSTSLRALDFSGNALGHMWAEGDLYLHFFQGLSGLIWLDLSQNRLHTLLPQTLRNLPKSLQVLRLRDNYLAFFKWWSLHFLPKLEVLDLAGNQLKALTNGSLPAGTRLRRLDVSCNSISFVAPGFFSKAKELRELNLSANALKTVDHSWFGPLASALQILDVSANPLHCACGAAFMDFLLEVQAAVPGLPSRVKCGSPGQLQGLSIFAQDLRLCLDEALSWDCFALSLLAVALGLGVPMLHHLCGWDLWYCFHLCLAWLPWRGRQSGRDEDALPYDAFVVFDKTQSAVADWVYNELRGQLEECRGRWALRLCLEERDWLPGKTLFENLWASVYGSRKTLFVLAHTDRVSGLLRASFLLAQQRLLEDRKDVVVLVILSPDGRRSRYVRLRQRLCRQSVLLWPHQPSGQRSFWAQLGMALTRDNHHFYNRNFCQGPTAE
In words: TLR9 inhibition reporter assay (HEK-Blue SEAP). To be noted: HEK-Blue cells overexpressing human TLR9, stimulated with ODN2006 5 nM, 22 hour incubation. In outline: as §1

The next assay has as its target T3, human TLR7 (Homo sapiens, UniProt Q9NYK1).
T3 construct: host or cells: HEK-Blue cells
T3 sequence (Q9NYK1 27-1049): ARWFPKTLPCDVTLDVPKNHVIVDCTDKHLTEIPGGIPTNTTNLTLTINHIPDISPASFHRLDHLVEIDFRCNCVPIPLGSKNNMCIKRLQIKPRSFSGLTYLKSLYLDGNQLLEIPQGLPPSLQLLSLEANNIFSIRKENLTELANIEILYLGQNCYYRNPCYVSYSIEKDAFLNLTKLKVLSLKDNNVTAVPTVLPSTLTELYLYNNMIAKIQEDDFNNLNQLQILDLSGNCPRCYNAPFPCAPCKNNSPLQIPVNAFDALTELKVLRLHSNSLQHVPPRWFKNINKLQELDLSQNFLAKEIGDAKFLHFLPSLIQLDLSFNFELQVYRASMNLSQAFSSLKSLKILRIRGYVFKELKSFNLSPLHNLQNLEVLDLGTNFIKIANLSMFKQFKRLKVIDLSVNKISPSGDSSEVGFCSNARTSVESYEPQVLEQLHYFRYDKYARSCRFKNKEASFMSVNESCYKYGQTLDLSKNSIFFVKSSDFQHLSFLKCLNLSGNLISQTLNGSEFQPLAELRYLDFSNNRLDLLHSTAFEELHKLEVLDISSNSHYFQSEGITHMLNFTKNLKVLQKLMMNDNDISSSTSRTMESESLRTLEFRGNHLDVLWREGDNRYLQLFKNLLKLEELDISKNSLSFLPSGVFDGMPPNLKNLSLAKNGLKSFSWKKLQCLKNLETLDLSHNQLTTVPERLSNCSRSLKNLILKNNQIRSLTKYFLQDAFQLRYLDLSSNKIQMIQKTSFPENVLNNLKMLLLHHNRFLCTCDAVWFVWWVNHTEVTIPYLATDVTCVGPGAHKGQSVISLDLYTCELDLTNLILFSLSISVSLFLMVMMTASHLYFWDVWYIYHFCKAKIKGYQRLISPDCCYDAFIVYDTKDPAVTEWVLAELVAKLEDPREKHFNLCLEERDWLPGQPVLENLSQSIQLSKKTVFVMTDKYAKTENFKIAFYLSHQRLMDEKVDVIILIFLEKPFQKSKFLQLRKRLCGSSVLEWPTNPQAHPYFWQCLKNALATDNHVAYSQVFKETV
In words: TLR7 inhibition reporter assay (HEK-Blue SEAP). The settings on record: HEK-Blue cells overexpressing human TLR7, stimulated with gardiquimod 7.5 μM, 22 hour incubation. In outline:
as §1

Where only a bound is given, the exact number is not on record here.

Turning to `Cc1cc(-c2cc3[nH]nc(C4CCC(N5CCOCC5)CC4)c3cc2C(C)C)cn2ncnc12` (stereo not drawn) [Example 132, 4-(4-(5-isopropyl-6-(8-methyl-[1,2,4]triazolo[1,5-a]pyridin-6-yl)-1H-indazol-3-yl)cyclohexyl)morpholine], the IC50 came to 0.1 nM on human TLR8, 5430 nM against human TLR9 and 0.9 nM at human TLR7.
On the same counts, the results for `Cc1cc(-c2cc3[nH]nc(C4CCC(N5CCOCC5)CC4)c3cc2C(C)C)cn2ncnc12` (stereo not drawn) [Example 133, 4-(4-(5-isopropyl-6-(8-methyl-[1,2,4]triazolo[1,5-a]pyridin-6-yl)-1H-indazol-3-yl)cyclohexyl)morpholine] are 0.2 nM, 9190 nM and 1.4 nM.
Regarding `COC1CN(C2CCC(c3n[nH]c4cc(-c5cc(C)c6ncnn6c5)c(C(C)C)cc34)CC2)C1` (stereo not drawn) [Example 144, 6-(5-isopropyl-3-(4-(3-methoxyazetidin-1-yl)cyclohexyl)-1H-indazol-6-yl)-8-methyl-[1,2,4]triazolo[1,5-a]pyridine], the IC50 turned out to be 0.5 nM against human TLR8, 13100 nM at human TLR9 and 0.8 nM against human TLR7.
On the same counts, the results for `COC1CN(C2CCC(c3n[nH]c4cc(-c5cc(C)c6ncnn6c5)c(C(C)C)cc34)CC2)C1` (stereo not drawn) [Example 145, 6-(5-isopropyl-3-(4-(3-methoxyazetidin-1-yl)cyclohexyl)-1H-indazol-6-yl)-8-methyl-[1,2,4]triazolo[1,5-a]pyridine] are 0.8 nM, 8690 nM and 1.5 nM.
On the same counts, the results for `Cc1cc(-c2cc3[nH]nc(C4CCC(N5CC(CO)(CO)C5)CC4)c3cc2C(C)C)cn2ncnc12` (stereo not drawn) [Example 146, (1-(4-(5-isopropyl-6-(8-methyl-[1,2,4]triazolo[1,5-a]pyridin-6-yl)-1H-indazol-3-yl)cyclohexyl)azetidine-3,3-diyl)dimethanol] are 2.6 nM, not below 50000 nM and 4.7 nM.
On the same counts, the results for `Cc1cc(-c2cc3[nH]nc(C4CCC(N5CC(F)C5)CC4)c3cc2C(C)C)cn2ncnc12` (stereo not drawn) [Example 151, 6-(3-(4-(3-fluoroazetidin-1-yl)cyclohexyl)-5-isopropyl-1H-indazol-6-yl)-8-methyl-[1,2,4]triazolo[1,5-a]pyridine] are 0.6 nM, 8360 nM and 1.4 nM.
For the compound `Cc1cc(-c2cc3[nH]nc(C4CCC(N5CC(F)C5)CC4)c3cc2C(C)C)cn2ncnc12` (stereo not drawn) [Example 152, 6-(3-(4-(3-fluoroazetidin-1-yl)cyclohexyl)-5-isopropyl-1H-indazol-6-yl)-8-methyl-[1,2,4]triazolo[1,5-a]pyridine], the IC50 on human TLR8 turned out to be 0.3 nM; on human TLR9, 13000 nM; at human TLR7, 1.3 nM.
On the same counts, the results for `Cc1cc(-c2cc3[nH]nc(C4CCC(N5CC(C)(O)C5)CC4)c3cc2C(C)C)cn2ncnc12` (stereo not drawn) [Example 153, 1-(4-(5-isopropyl-6-(8-methyl-[1,2,4]triazolo[1,5-a]pyridin-6-yl)-1H-indazol-3-yl)cyclohexyl)-3-methylazetidin-3-01] are 0.6 nM, 7450 nM and 1.1 nM.
On the same counts, the results for `Cc1cc(-c2cc3[nH]nc(C4CCC(N5CC(C)(O)C5)CC4)c3cc2C(C)C)cn2ncnc12` (stereo not drawn) [Example 154, 1-(4-(5-isopropyl-6-(8-methyl-[1,2,4]triazolo[1,5-a]pyridin-6-yl)-1H-indazol-3-yl)cyclohexyl)-3-methylazetidin-3-01] are 0.2 nM, 15900 nM and 0.5 nM.
On the same counts, the results for `Cc1cc(-c2cc3[nH]nc(C4CCC(N5CC6(CCO6)C5)CC4)c3cc2C(C)C)cn2ncnc12` (stereo not drawn) [Example 155, 6-(4-(5-isopropyl-6-(8-methyl-[1,2,4]triazolo[1,5-a]pyridin-6-yl)-1H-indazol-3-yl)cyclohexyl)-1-oxa-6-azaspiro[3.3]heptane] are 0.2 nM, 7560 nM and 1.8 nM.
In the case of `Cc1cc(-c2cc3[nH]nc(C4CCC(N5CC6(CCO6)C5)CC4)c3cc2C(C)C)cn2ncnc12` (stereo not drawn) [Example 156, 6-(4-(5-isopropyl-6-(8-methyl-[1,2,4]triazolo[1,5-a]pyridin-6-yl)-1H-indazol-3-yl)cyclohexyl)-1-oxa-6-azaspiro[3.3]heptane], the IC50 against human TLR8 came to 0.1 nM; against human TLR9 it was 6110 nM; against human TLR7, 0.8 nM.
On the same counts, the results for `Cc1cc(-c2cc3[nH]nc(C4CCC(N5CC6(CCOC6)C5)CC4)c3cc2C(C)C)cn2ncnc12` (stereo not drawn) [Example 157, 2-(4-(5-isopropyl-6-(8-methyl-[1,2,4]triazolo[1,5-a]pyridin-6-yl)-1H-indazol-3-yl)cyclohexyl)-6-oxa-2-azaspiro[3.4]octane] are 0.4 nM, 6730 nM and 0.5 nM.
